The target of this experiment is Beta-lactamase L1 (Stenotrophomonas maltophilia) (UniProt P52700). As to the kind of experiment: Inhibition of Stenotrophomonas maltophilia L1 metallo beta lactamase at 200 uM.
Beta-lactamase L1 (Stenotrophomonas maltophilia), sequence (P52700 34-290 limits assumed): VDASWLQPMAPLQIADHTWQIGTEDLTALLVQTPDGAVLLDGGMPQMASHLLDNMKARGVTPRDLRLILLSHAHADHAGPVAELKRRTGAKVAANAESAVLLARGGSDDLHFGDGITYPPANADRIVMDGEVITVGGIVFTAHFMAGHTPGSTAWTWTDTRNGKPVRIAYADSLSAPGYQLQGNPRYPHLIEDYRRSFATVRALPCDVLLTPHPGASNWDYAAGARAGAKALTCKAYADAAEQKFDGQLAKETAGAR

By inhibition is commonly meant the drop in the measured response relative to a control, in per cent. A high value points to a response far below the control. In turn, `O=C(NC(CCS)C(=O)N[C@H](Cc1ccccc1)C(=O)O)c1ccc([N+](=O)[O-])cc1` (stereo partly drawn) registered an inhibition of 41%.
`CCCCCCCC(=O)NC(CCS)C(=O)N[C@H](Cc1ccccc1)C(=O)O` (stereo partly drawn): the inhibition came out at 41%.
`Cc1nocc1C(=O)NC(CCS)C(=O)N[C@H](Cc1ccccc1)C(=O)O` (stereo partly drawn) registered an inhibition of 61%.
Molecule `O=C(Cc1c[nH]c2ccccc12)NC(CCS)C(=O)N[C@H](Cc1ccccc1)C(=O)O` (stereo partly drawn) yielded an inhibition of 61%.
Then `O=C(NC(CCS)C(=O)N[C@H](Cc1ccccc1)C(=O)O)c1cc[nH]c1` (stereo partly drawn), with 41%; and `O=C(NC(CCS)C(=O)N[C@H](Cc1ccccc1)C(=O)O)c1cccnc1S` (stereo partly drawn), with 61%.
In the case of `CC(=O)CCC(=O)NC(CCS)C(=O)N[C@H](Cc1ccccc1)C(=O)O` (stereo partly drawn), the inhibition was found to be 41%.
Take `CC(C)C(=O)NC(CCS)C(=O)N[C@H](Cc1ccccc1)C(=O)O` (stereo partly drawn): the inhibition was determined as 41%.
In turn, `O=C(NC(CCS)C(=O)N[C@H](Cc1ccccc1)C(=O)O)C1CCCC1` (stereo partly drawn) gave an inhibition of 61%.
The molecule `O=C(NC(CCS)C(=O)N[C@H](Cc1ccccc1)C(=O)O)c1cnc(O)c(Cl)c1` (stereo partly drawn) came in with an inhibition of 81%.
In the case of `O=C(NC(CCS)C(=O)N[C@H](Cc1ccccc1)C(=O)O)C1CCC1` (stereo partly drawn), the inhibition was found to be 0%.
The molecule `O=C(O)CCC(=O)NC(CCS)C(=O)N[C@H](Cc1ccccc1)C(=O)O` (stereo partly drawn) returned an inhibition of 41%.
Molecule `O=C(CO)NC(CCS)C(=O)N[C@H](Cc1ccccc1)C(=O)O` (stereo partly drawn) yielded an inhibition of 41%.
`Cc1ccsc1C(=O)NC(CCS)C(=O)N[C@H](Cc1ccccc1)C(=O)O` (stereo partly drawn) yielded an inhibition of 61%.
Then `O=C(NC(CCS)C(=O)N[C@H](Cc1ccccc1)C(=O)O)c1cc2ccccc2s1` (stereo partly drawn), with 61%; and `O=C(NC(CCS)C(=O)N[C@H](Cc1ccccc1)C(=O)O)c1ccc([N+](=O)[O-])c(O)c1` (stereo partly drawn), with 61%; and `O=C(COc1ccccc1)NC(CCS)C(=O)N[C@H](Cc1ccccc1)C(=O)O` (stereo partly drawn), with 61%.
Molecule `O=C(O)c1cccc(C(=O)NC(CCS)C(=O)N[C@H](Cc2ccccc2)C(=O)O)n1` (stereo in doubt; 84) had an inhibition of 81%.
`O=C(O)c1ccc(C(=O)NC(CCS)C(=O)N[C@H](Cc2ccccc2)C(=O)O)cc1` (stereo partly drawn) had an inhibition of 61%.
In turn, `O=C(NC(CCS)C(=O)N[C@H](Cc1ccccc1)C(=O)O)c1ccc2[nH]ccc2c1` (stereo partly drawn) gave an inhibition of 61%.
As to `C=C(C)C(=O)NC(CCS)C(=O)N[C@H](Cc1ccccc1)C(=O)O` (stereo partly drawn), the inhibition was 61%.
Molecule `O=C(NC(CCS)C(=O)N[C@H](Cc1ccccc1)C(=O)O)c1ccccc1-c1ccccc1` (stereo partly drawn) showed an inhibition of 41%.
Molecule `O=C(CC(O)C(=O)O)NC(CCS)C(=O)N[C@H](Cc1ccccc1)C(=O)O` (stereo partly drawn) registered an inhibition of 41%.
With `Cc1cn(C)c(CC(=O)NC(CCS)C(=O)N[C@H](Cc2ccccc2)C(=O)O)c1C(=O)O` (stereo partly drawn), the inhibition came out at 41%.
As to `O=C(NC(CCS)C(=O)N[C@H](Cc1ccccc1)C(=O)O)c1ccc2cc[nH]c2c1` (stereo partly drawn), the inhibition amounted to 41%.
Consider `O=C(Cc1c[nH]cn1)NC(CCS)C(=O)N[C@H](Cc1ccccc1)C(=O)O` (stereo partly drawn), for which the inhibition came out at 41%.
Regarding `CC(=O)Nc1cccc(C(=O)NC(CCS)C(=O)N[C@H](Cc2ccccc2)C(=O)O)c1` (stereo partly drawn), the inhibition came out at 61%.
Take `O=C(O)c1cc(O)cc(C(=O)NC(CCS)C(=O)N[C@H](Cc2ccccc2)C(=O)O)c1` (stereo in doubt; 49): the inhibition is 81%.
Then `O=C(NC(CCS)C(=O)N[C@H](Cc1ccccc1)C(=O)O)c1cccnc1` (stereo partly drawn), with 61%; and `Cc1occc1C(=O)NC(CCS)C(=O)N[C@H](Cc1ccccc1)C(=O)O` (stereo partly drawn), with 41%; and `CCCCc1ccc(C(=O)NC(CCS)C(=O)N[C@H](Cc2ccccc2)C(=O)O)nc1` (stereo in doubt; 91), with 81%.
Turning to `Nc1nc(CC(=O)NC(CCS)C(=O)N[C@H](Cc2ccccc2)C(=O)O)cs1` (stereo partly drawn), the inhibition was 41%.
On to `O=C(/C=C\c1ccco1)NC(CCS)C(=O)N[C@H](Cc1ccccc1)C(=O)O` (stereo partly drawn), for which the inhibition was 21%.

(Values after ChEMBL document CHEMBL1146889, “Homo-cysteinyl peptide inhibitors of the L1 metallo-beta-lactamase, and SAR as determined by combinatorial library synthesis” (Bioorg Med Chem Lett, 2006).)
